Results on one molecule are retold here after article PMC5240995, “Lysine Decarboxylase with an Enhanced Affinity for Pyridoxal 5-Phosphate by Disulfide Bond-Mediated Spatial Reconstitution” (PLoS ONE, 2017).

In the assay the target is T1, SrLDC (Pseudoselenomonas ruminantium, UniProt O50657, A225C/T302C).
T1 construct: gene ldc
The assay can be described thus: isothermal titration calorimetry. Format: binding.

Each structure is given as a SMILES string. pKd: −log10 of the molar value.

T1 sequence (O50657 whole entry A225C/T302C): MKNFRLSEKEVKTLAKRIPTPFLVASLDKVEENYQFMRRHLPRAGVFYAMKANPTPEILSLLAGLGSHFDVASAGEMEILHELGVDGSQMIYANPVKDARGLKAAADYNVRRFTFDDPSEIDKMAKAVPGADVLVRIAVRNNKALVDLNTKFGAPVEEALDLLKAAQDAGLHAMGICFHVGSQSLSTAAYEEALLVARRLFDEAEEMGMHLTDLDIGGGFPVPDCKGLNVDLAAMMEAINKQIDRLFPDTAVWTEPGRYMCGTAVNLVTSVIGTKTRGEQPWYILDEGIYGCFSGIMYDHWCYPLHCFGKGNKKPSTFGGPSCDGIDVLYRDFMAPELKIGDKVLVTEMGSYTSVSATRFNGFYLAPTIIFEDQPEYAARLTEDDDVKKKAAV

In general, pKd refers to −log10 of the Kd, conventionally taken in molar units. A low value points to a high Kd. On to `Cc1ncc(COP(=O)(O)O)c(C=O)c1O` [pyridoxal 5-phosphate], for which the pKd is 4.68.
